In PubChem BioAssay AID1053153 (Broad Institute, 2014):

Test system: HepG2 + statin, PCSK9 mRNA qPCR, 24 h
Assay: PCSK9 mRNA change in statin-treated cells, late-stage follow-up, mechanism study for Trib1 inducer project, cell-based, HepG2, RT-PCR, atorvastatin or simvastatin, cherry-pick (AID 1053153)

SMILES	fold change
CN1C(=O)c2cc(NC(=O)c3ccc(C(F)(F)F)cc3)ccc2OC[C@@H]2O[C@@H](CC(=O)NC3Cc4ccccc4C3)CC[C@@H]21	10
CN1C(=O)c2cc(NC(=O)c3ccc(C(F)(F)F)cc3)ccc2OC[C@@H]2O[C@H](CC(=O)NC3Cc4ccccc4C3)CC[C@@H]21	2
